Experiments:
CYPIR (Rice Flatsedge) = assay: Preemergence weed control under flooded paddy conditions; format: in vivo, Cyperus iria; details: rated 3-4 weeks after treatment
Method in brief: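 Flooded-pot preemergence screen with silt loam and seeds in the upper 0.5 cm. Dose about 0.0313 to 0.500 kg/ha, delivered into flood water; visual 0-9 score after 3 to 4 weeks.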

SETVI (Foxtail, Green) = assay: Postemergence herbicidal evaluation; format: in vivo, Setaria viridis; details: postemergence
Method in brief: (§1)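 Compound is applied as a foliar spray to seedlings about two weeks old, formulated in equal parts acetone and water with 0.5% TWEEN 20 and delivered at 40 psi to give about 0.0156–0.500 kg per hectare. Injury is rated visually 0–9 after four to five weeks.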

ZEAMX (Corn, Field) = assay: Preemergence herbicidal evaluation; format: in vivo, Zea mays; details: rated 4-5 weeks after treatment
Method in brief: (§2)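 In this greenhouse assay, monocot and dicot seeds are planted in soil and treated prior to emergence with an aqueous acetone spray (about 0.0156-0.500 kg/ha). Plants are assessed visually against control on a 0-9 scale after 4-5 weeks.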

ECHCG (Barnyardgrass) = assay: Postemergence herbicidal evaluation; format: in vivo, Echinochloa crus-galli; details: postemergence
Method in brief: as §1

CYPSE (Flatsedge) [1] = assay: Preemergence weed control under flooded paddy conditions; format: in vivo, Cyperus serotinus; details: rated 3-4 weeks after treatment
Method in brief: (§3)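 Seeds or propagules sown in top 0.5 cm of silt loam soil, flooded 1.5 to 3 cm above surface throughout. Compound in 50/50 v/v aqueous/acetone pipetted into flood water at about 0.0313 to 0.500 kg/ha. Visual 0-9 rating versus control after three to four weeks in greenhouse.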

GALAP (Galium) [2] = assay: Preemergence herbicidal evaluation; format: in vivo, Galium aparine; details: rated 4-5 weeks after treatment
Method in brief: as §2

[3] = test system: CHEAL (Lambsquarters, Common); assay: Postemergence herbicidal evaluation; format: in vivo, Chenopodium album; details: postemergence
Method in brief: as §1

CASOB (Sicklepod) [4] = assay: Postemergence herbicidal evaluation; format: in vivo, Cassia obtusifolia; details: postemergence
Method in brief: as §1

[5] = test system: SAGPY (Arrowhead (Pygmaea)); assay: Preemergence weed control under flooded paddy conditions; format: in vivo, Sagittaria pygmaea; details: rated 3-4 weeks after treatment
Method in brief: as §3

AMBEL (Ragweed, Common) = assay: Postemergence herbicidal evaluation; format: in vivo, Ambrosia artemisifolia; details: postemergence
Method in brief: as §1

ORYSAT (Rice, Tebonnet) = assay: Postemergence herbicidal evaluation; format: in vivo, Oryza sativa, (L.) Tebonnet; details: postemergence
Method in brief: as §1

GALAP (Galium) [6] = assay: Postemergence herbicidal evaluation; format: in vivo, Galium aparine; details: postemergence
Method in brief: as §1

CYPSE (Flatsedge) [7] = assay: Postemergence weed control under flooded paddy conditions; format: in vivo, Cyperus serotinus; details: postemergence weeds, rated 3 to 4 weeks after treatment
Method in brief: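 With weeds 3 to 5 cm tall and rice at the 1.5 to 2.5 leaf stage, containers were flooded and water held 1.5 to 3 cm above soil. Compounds in 50/50 v/v aqueous/acetone went into the flood water at about 0.0313 to 0.500 kg/ha a.i. Effects were visually rated 0–9 against controls after three to four weeks in the greenhouse.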

CASOB (Sicklepod) [8] = assay: Preemergence herbicidal evaluation; format: in vivo, Cassia obtusifolia; details: rated 4-5 weeks after treatment
Method in brief: as §2

[9] = test system: GLXMAW (Soybean, Williams); assay: Postemergence herbicidal evaluation; format: in vivo, Glycine max, (L.) Merr. cv Williams; details: postemergence
Method in brief: as §1

CCOC(=O)[C@H](C)N1C(=O)CSC1=Nc1cc(-n2c(=O)cc(C(F)(F)F)n(C)c2=O)c(F)cc1Cl [Compound 76, Ethyl 2-{{2-chloro-5-[3,6-dihydro-3-methyl-2,6-dioxo-4-(trifluoromethyl)-1(2H)-pyrimidinyl]-4-fluorophenyl}imino}-α-methyl-4-oxo-3-thiazolidineacetate, L-]
CYPIR herbicidal effect rating (CYPIR (Rice Flatsedge); 0.0313 kg/ha): 0.0 | CYPIR herbicidal effect rating (CYPIR (Rice Flatsedge); 0.0625 kg/ha): 0.0 | CYPIR herbicidal effect rating (CYPIR (Rice Flatsedge); 0.1250 kg/ha): 0.0 | CYPIR herbicidal effect rating (CYPIR (Rice Flatsedge); 0.2500 kg/ha): 6.0 | SETVI herbicidal rating (SETVI (Foxtail, Green); rate 0.0158 kg/ha): 1.0 | SETVI herbicidal rating (SETVI (Foxtail, Green); rate 0.0315 kg/ha): 2.0 | SETVI herbicidal rating (SETVI (Foxtail, Green); rate 0.0630 kg/ha): 9.0 | Preemergence herbicidal rating ZEAMX (ZEAMX (Corn, Field); rate 0.0156 kg/ha): 0.0 | Preemergence herbicidal rating ZEAMX (ZEAMX (Corn, Field); rate 0.0313 kg/ha): 1.0 | Preemergence herbicidal rating ZEAMX (ZEAMX (Corn, Field); rate 0.0625 kg/ha): 5.0 | Preemergence herbicidal rating ZEAMX (ZEAMX (Corn, Field); rate 0.1250 kg/ha): 7.0 | Preemergence herbicidal rating ZEAMX (ZEAMX (Corn, Field); rate 0.2500 kg/ha): 7.0 | ECHCG herbicidal rating (ECHCG (Barnyardgrass); rate 0.0158 kg/ha): 1.0 | ECHCG herbicidal rating (ECHCG (Barnyardgrass); rate 0.0315 kg/ha): 1.0 | ECHCG herbicidal rating (ECHCG (Barnyardgrass); rate 0.0630 kg/ha): 2.0 | CYPSE herbicidal effect rating (CYPSE (Flatsedge) [1]; 0.0313 kg/ha): 2.0 | CYPSE herbicidal effect rating (CYPSE (Flatsedge) [1]; 0.0625 kg/ha): 2.0 | CYPSE herbicidal effect rating (CYPSE (Flatsedge) [1]; 0.1250 kg/ha): 2.0 | CYPSE herbicidal effect rating (CYPSE (Flatsedge) [1]; 0.2500 kg/ha): 3.0 | Preemergence herbicidal rating GALAP (GALAP (Galium) [2]; rate 0.0156 kg/ha): 0.0 | Preemergence herbicidal rating GALAP (GALAP (Galium) [2]; rate 0.0313 kg/ha): 0.0 | Preemergence herbicidal rating GALAP (GALAP (Galium) [2]; rate 0.0625 kg/ha): 0.0 | Preemergence herbicidal rating GALAP (GALAP (Galium) [2]; rate 0.1250 kg/ha): 1.0 | Preemergence herbicidal rating GALAP (GALAP (Galium) [2]; rate 0.2500 kg/ha): 9.0 | CHEAL herbicidal rating ([3]; rate 0.0158 kg/ha): 3.0 | CHEAL herbicidal rating ([3]; rate 0.0315 kg/ha): 7.0 | CHEAL herbicidal rating ([3]; rate 0.0630 kg/ha): 7.0 | CASOB herbicidal rating (CASOB (Sicklepod) [4]; rate 0.0158 kg/ha): 1.0 | CASOB herbicidal rating (CASOB (Sicklepod) [4]; rate 0.0315 kg/ha): 4.0 | CASOB herbicidal rating (CASOB (Sicklepod) [4]; rate 0.0630 kg/ha): 5.0 | SAGPY herbicidal effect rating ([5]; 0.0313 kg/ha): 0.0 | SAGPY herbicidal effect rating ([5]; 0.0625 kg/ha): 0.0 | SAGPY herbicidal effect rating ([5]; 0.1250 kg/ha): 4.0 | SAGPY herbicidal effect rating ([5]; 0.2500 kg/ha): 4.0 | AMBEL herbicidal rating (AMBEL (Ragweed, Common); rate 0.0158 kg/ha): 9.0 | AMBEL herbicidal rating (AMBEL (Ragweed, Common); rate 0.0315 kg/ha): 9.0 | AMBEL herbicidal rating (AMBEL (Ragweed, Common); rate 0.0630 kg/ha): 9.0 | ORYSAT herbicidal rating (ORYSAT (Rice, Tebonnet); rate 0.0158 kg/ha): 3.0 | ORYSAT herbicidal rating (ORYSAT (Rice, Tebonnet); rate 0.0315 kg/ha): 4.0 | ORYSAT herbicidal rating (ORYSAT (Rice, Tebonnet); rate 0.0630 kg/ha): 5.0 | GALAP herbicidal rating (GALAP (Galium) [6]; rate 0.0158 kg/ha): 1.0 | GALAP herbicidal rating (GALAP (Galium) [6]; rate 0.0315 kg/ha): 6.0 | GALAP herbicidal rating (GALAP (Galium) [6]; rate 0.0630 kg/ha): 7.0 | Herbicidal rating CYPSE (CYPSE (Flatsedge) [7]; Rate 0.0313 kg/ha): 2.0 | Herbicidal rating CYPSE (CYPSE (Flatsedge) [7]; Rate 0.0625 kg/ha): 2.0 | Herbicidal rating CYPSE (CYPSE (Flatsedge) [7]; Rate 0.1250 kg/ha): 2.0 | Herbicidal rating CYPSE (CYPSE (Flatsedge) [7]; Rate 0.2500 kg/ha): 3.0 | Preemergence herbicidal rating CASOB (CASOB (Sicklepod) [8]; rate 0.0156 kg/ha): 0.0 | Preemergence herbicidal rating CASOB (CASOB (Sicklepod) [8]; rate 0.0313 kg/ha): 0.0 | Preemergence herbicidal rating CASOB (CASOB (Sicklepod) [8]; rate 0.0625 kg/ha): 0.0 | Preemergence herbicidal rating CASOB (CASOB (Sicklepod) [8]; rate 0.1250 kg/ha): 0.0 | Preemergence herbicidal rating CASOB (CASOB (Sicklepod) [8]; rate 0.2500 kg/ha): 1.0 | GLXMAW herbicidal rating ([9]; rate 0.0158 kg/ha): 4.0 | GLXMAW herbicidal rating ([9]; rate 0.0315 kg/ha): 5.5 | GLXMAW herbicidal rating ([9]; rate 0.0630 kg/ha): 6.0
